PubChem BioAssay AID489027 (Sanford-Burnham Center for Chemical Genomics, 2010)
Active and inactive are the calls of the source. How the calls were made is not given here.

molecular target: UPR counterscreen luciferase reporter, luminescence; test: luciferase reporter activation, UPR counterscreen line – cell-based, luminescence, counter-screen for adaptive UPR activator project, dose response (AID 489027)

Row | Compound | EC50
1 | CCCC[C@@H](C)C[C@@H](C)C(=O)N(C)[C@@H](CC(C)C)C(=O)N[C@H](C(=O)N(C)[C@H](C(=O)N1C[C@@H](O)C[C@H]1C(=O)N1C(=O)C=C[C@@H]1C)C(C)C)C(C)OC(C)=O (stereo partly drawn) | 7.75 µM
2 | CCC(C)Nc1nc(N)c([N+](=O)[O-])c(NC2CCCCC2)n1 (stereo not drawn) | inactive
3 | CCc1ccccc1NC(=O)C(CC)Sc1nc2cc3c(cc2c(=O)n1Cc1ccco1)OCO3 (stereo not drawn) | 11.6 µM
4 | CCCCCC(=O)Nc1ccc(C(=O)N/N=C/c2ccc([N+](=O)[O-])cc2)cc1 | inactive
5 | Cc1cc(C)cc(NC(=O)/C(C#N)=C/c2cn(CC(=O)NCc3ccco3)c3ccccc23)c1 | 7.27 µM
6 | CCOC(=O)c1c(NC(=O)c2cc(C)on2)c2cc([N+](=O)[O-])ccc2n1C | > 80 µM (inactive)
7 | CN(C)CC(CCC(CN(C)C)C(O)(c1ccccc1)c1ccccc1)C(O)(c1ccccc1)c1ccccc1 (stereo not drawn) | 6.06 µM
8 | Cc1cc(C)c2c(n1)sc1c(-c3ccccc3)c(C#N)c(N)nc12 | > 80 µM (inactive)
9 | O=C(/C(=N/N=C/c1ccc(O)c(O)c1)c1ccccc1)c1ccccc1 | 8.07 µM
10 | Cc1ccc(C(C(=O)NCc2ccco2)N(C(=O)CNC(=O)c2cccs2)c2c(C)cc(C)cc2C)cc1 (stereo not drawn) | inactive
11 | COc1ccc(-c2csc(C3=C(O)CN(Cc4ccc(Cl)cc4)C3=N)n2)cc1OC | > 80 µM (inactive)
12 | Cc1cc(NC(=O)CSc2nc3sc(C)c(C)c3c(=O)n2C2CCCC2)no1 | > 80 µM (inactive)
13 | O=C(Nc1ccc(Oc2ccc(NC(=O)Nc3ccccc3Cl)cc2)cc1)Nc1ccccc1Cl | > 80 µM (inactive)
14 | CC1CCc2cc(F)ccc2N1C(=O)CSc1nnc2c(n1)[nH]c1ccc(F)cc12 (stereo not drawn) | > 80 µM (inactive)
15 | Brc1ccc(C2=Nn3c(nnc3-c3n[nH]c4c3CCC4)SC2)cc1 | inactive
16 | Clc1ccc2c(c1)C(N1CCNCC1)Cc1ccccc1S2 (stereo not drawn) | > 80 µM (inactive)
17 | COc1ccc(OC)c(Nc2nc(NCc3ccco3)nc(N)c2[N+](=O)[O-])c1 | inactive
18 | COc1ccc(/C=N/NC(=O)c2cccc([N+](=O)[O-])c2)c2ccccc12 | inactive
19 | O=C(Nc1ccc([N+](=O)[O-])cc1)c1nc[nH]c1C(=O)NC1CCCCC1 | > 80 µM (inactive)
20 | NC(=O)CC(NC(=O)Cc1cccc2ccccc12)c1ccc(NCCOc2ccccc2)c([N+](=O)[O-])c1 (stereo not drawn) | > 80 µM (inactive)
21 | CC1CCCN(c2ccc(C(=O)NCc3cccs3)cn2)C1 (stereo not drawn) | > 80 µM (inactive)
22 | O=C1c2cccc3cc(Br)cc(c23)C(=O)N1Nc1ccc(Br)cc1 | inactive
23 | CCN(CC)c1ccc(-c2nn3c(-c4ccccc4OC)nnc3s2)cc1 | inactive
24 | CC(C)c1ccc(C2C3=C(COC3=O)Nc3cc4c(cc32)OCO4)cc1 (stereo not drawn) | inactive

Row | Compound | EC50
25 | CCc1nc(C)cn1S(=O)(=O)c1cc([N+](=O)[O-])ccc1Cl | > 80 µM (inactive)
26 | CC1=C(CC/C(C)=N/NC(N)=S)C(C)(C)CCC1 | 13.9 µM
27 | CC(C)(C)c1ccc(C(=O)Nc2ccc(O)c3c(=O)cc(-c4cccc(Cl)c4)oc23)cc1 | > 80 µM (inactive)
28 | O=C(NC1CCCCC1)c1cccc2c1C(=O)c1ccc(-c3ccc(OC(F)(F)F)cc3)cc1S2(=O)=O | > 80 µM (inactive)
29 | CCOC(=O)N1CCN(S(=O)(=O)c2ccc(C(=O)Nc3nc4c(s3)CC(C)CC4)cc2)CC1 (stereo not drawn) | 9.29 µM
30 | Cc1ccc(F)cc1N=Cc1c(O)c2ccccc2oc1=O | 9.06 µM
31 | COc1cc(C(=O)Nc2cc(-c3nc4cc(C)ccc4o3)ccc2C)cc(OC)c1OC | inactive
32 | CCCCCCCCCCOC(=O)Cn1c(COc2ccccc2OC)[n+](C)c2ccccc21 | 12.8 µM
33 | CCOc1ccccc1CNC(=O)C1CCN(c2nnc(C)c3c(C)n(-c4ccc(C)cc4)nc23)CC1 | > 80 µM (inactive)
34 | CCCCCn1c(N)c(-c2nc3ccccc3o2)c2c([N+](=O)[O-])nn(CC)c(=O)c21 | inactive
35 | COc1cc([C@H]2c3[nH]c4ccccc4c3C[C@H]3C(=O)N4[C@@H](c5cc(OC)c(OC)c(OC)c5)c5[nH]c6ccccc6c5C[C@H]4C(=O)N23)cc(OC)c1OC | 7.28 µM
36 | COc1ccc2cc3c(N)nn(C(=O)C4CCC(C(C)(C)C)CC4)c3nc2c1 (stereo not drawn) | > 80 µM (inactive)
37 | CN(C)C(=O)CCc1ccc2c3c([nH]c2c1)[C@]1(CCc2ccccc2)[C@@H](C(=O)N2CCCCC2)C[C@H](CC(=O)NCCC2=CCCCC2)C(=O)N1CC3 | inactive
38 | COc1cc(C(=O)Nc2nc(-c3ccc(Cl)cc3)c(C)s2)ccc1OCC(=O)Nc1ccc(F)cc1 | 17.9 µM
39 | O=c1cc2oc3cc(O)c(O)cc3c(-c3ccccc3[N+](=O)[O-])c-2cc1O | > 80 µM (inactive)
40 | COc1ccc(/C=C/c2nc3cc(-c4ccccc4)ccc3o2)cc1O | 14.6 µM
41 | CCc1ccc(N2C(=O)NC(=O)/C(=C\c3cccn3CCOc3ccc(C(C)C)cc3)C2=O)cc1 | 6.38 µM
42 | C/C(=N/Nc1cc(-c2ccccc2)nc(-c2ccccc2)n1)c1ccc(O)cc1 | 15.4 µM
43 | O=C(NCc1ccccc1Br)c1cccc2c1C(=O)c1ccc(-c3ccc(OC(F)(F)F)cc3)cc1S2(=O)=O | 9.03 µM
44 | COc1ccc(Cc2nnc(N/N=C/c3ccc(N(C)C)cc3)[nH]c2=O)cc1OC | > 80 µM (inactive)
45 | CC(C)c1cccc(-c2ccc3c(c2)S(=O)(=O)c2cccc(C(=O)NCc4ccccc4Cl)c2C3=O)c1 | 7.24 µM
46 | O=C(NCC1CCCO1)c1nn2c(C(F)(F)F)cc(-c3cc(Br)cs3)nc2c1Br (stereo not drawn) | > 80 µM (inactive)
47 | COc1ccc(Br)cc1-c1nc2c(c(=O)[nH]c(=O)n2Cc2ccccc2)n1C | > 80 µM (inactive)
48 | CCCCN(CC)S(=O)(=O)c1ccc(C(=O)N=c2sc3cc(NC(C)=O)ccc3n2C)cc1 | 5.23 µM

Row | Compound | EC50
49 | CC1CCc2c(sc(NC(=O)CCc3nc4ccccc4c(=O)[nH]3)c2C#N)C1 (stereo not drawn) | inactive
50 | O=C1Nc2ccccc2/C1=C/c1ccc([N+](=O)[O-])cc1 | inactive
51 | CC(C)=CCc1c2c(c3occ(-c4ccc(O)cc4)c(=O)c3c1O)C=CC(C)(C)O2 | 16.6 µM
52 | N=c1n(CC(=O)c2ccc([N+](=O)[O-])cc2)c2ccccc2n1Cc1ccc(Cl)cc1 | 7.87 µM
53 | Cc1ccc2c(c1)C(c1ccc([N+](=O)[O-])cc1)=NNC(c1ccc(Br)cc1)=N2 | > 80 µM (inactive)
54 | CCOC(=O)c1nnc(-c2ccc(C)cc2)nc1Oc1ccccc1Cl | inactive
55 | Cc1ccc(-c2nnn(CC(=O)Nc3ccc(S(=O)(=O)N4CCC(C)CC4)cc3)n2)cc1 | inactive
56 | CCCCCCCCCn1c2c(c(=N)c3c1CCC3)CCCC2 | 9 µM
57 | Cc1cccc2c1Sc1ccc(Cl)cc1CC2N1CCNCC1 (stereo not drawn) | > 80 µM (inactive)
58 | COc1ccccc1N=Cc1c(O)c2ccccc2oc1=O | 9.23 µM
59 | Cc1ccc(O)c(NC(=S)NC(=O)Cc2ccc(Cl)cc2)c1 | inactive
60 | C=CCN=C1S/C(=C/c2cccc([N+](=O)[O-])c2)C(=O)N1CC=C | inactive
61 | CCOc1ccc(NC(=S)NC(=O)/C=C/c2ccc(C)cc2)c([N+](=O)[O-])c1 | > 80 µM (inactive)
62 | CCN(CC)CCn1c(SCC(=O)Nc2ccc(F)cc2)nc2c(sc3ccccc32)c1=O | > 80 µM (inactive)
63 | COc1ccc(-n2c(C)cc(C(=O)CCl)c2C)cc1 | 5.8 µM
64 | O=C(N/N=C/C(Br)=C\c1ccccc1)c1n[nH]c2c1CCC2 | inactive
65 | O=c1[nH]c(-c2ccc(-c3cccc(Cl)c3)o2)nc2ccccc12 | 11.9 µM
66 | Cc1cc(N2CCN(c3nc(-c4ccc([N+](=O)[O-])cc4)cs3)CC2)c2ccccc2n1 | 15.2 µM
67 | Cc1ccc2nsnc2c1NC(=O)c1ccc(-c2cc(Cl)ccc2Cl)o1 | > 80 µM (inactive)
68 | C=CCn1c(O)c(C2=c3ccccc3=NC2=O)sc1=Nc1ccc(O)cc1 | 18.3 µM
69 | O=C(NCCC1=CCCCC1)C(=O)NCC(c1ccco1)N1CCN(c2ccc(F)cc2)CC1 (stereo not drawn) | > 80 µM (inactive)
70 | CCOc1cc(/C=C2/NC(=S)NC2=O)ccc1OCc1ccc([N+](=O)[O-])cc1 | inactive
71 | Cc1ccc(C(=O)Cn2c(C(=O)/C=C/c3ccccc3)nc3ccccc32)cc1 | 10.9 µM
72 | Cc1cc(NC(=O)CSc2nc3cc(Cl)ccc3c(=O)n2Cc2ccco2)no1 | > 80 µM (inactive)

Row | Compound | EC50
73 | CCOC(=O)c1c(NC(=O)c2cc(-c3ccc(O)cc3)on2)sc(C(C)=O)c1C | > 80 µM (inactive)
74 | Cc1cc(C)c2c(c1)/C(=N/Nc1ccc(S(N)(=O)=O)cc1[N+](=O)[O-])CCC2 | > 80 µM (inactive)
75 | COc1ccc(NC(=O)c2cc3c(=O)n(C)c4ccccc4c3n2C)cc1Cl | > 80 µM (inactive)
76 | CC(C)N=C(NS(=O)(=O)c1ccccc1)C(Cl)(Cl)Cl | > 80 µM (inactive)
77 | Cc1c(CCOC(=O)C23CC4(C)CC(C)(CC(C)(C4)C2)C3)sc[n+]1CC(=O)c1ccccc1 | > 80 µM (inactive)
78 | CC(=O)Oc1ccc(-c2ccc(C(=O)OCC(=O)N(C)CC(=O)Nc3ccccc3Cl)cc2)cc1 | 3.02 µM
79 | CCOc1cc(/C=N/NC(=O)Cn2nc([N+](=O)[O-])cc2C)cc(Br)c1OCc1ccccc1C | > 80 µM (inactive)
80 | N#Cc1ccccc1NC(=O)COc1c(Br)cc(Br)c2cccnc12 | inactive
81 | CC(C)CC(NC(=O)c1ccc(Cl)cc1)C(=O)OCC(=O)c1ccc2c(c1)NC(=O)CO2 (stereo not drawn) | > 80 µM (inactive)
82 | CCOc1ccc(-n2nc3ccc(NC(=O)c4ccc5c(c4)OCCO5)cc3n2)cc1 | inactive
83 | Cc1nn(Cc2c(Cl)cccc2Cl)c(C)c1NC(=O)c1sc2ccccc2c1Cl | 18.5 µM
84 | COc1cc(/C=C/c2ccc3cccc(O)c3n2)ccc1O | 7.62 µM
85 | CCOc1ccc(C(=O)Nc2cc(-c3nc4ccccc4[nH]3)ccc2Cl)cc1[N+](=O)[O-] | 17.7 µM
86 | CN(C)CCCn1cnc2c(c1=N)C(c1ccccc1)c1ccc3ccccc3c1O2 (stereo not drawn) | 7.75 µM
87 | Clc1ccc(C2=Nn3c(nnc3-c3cc(-c4ccccc4)n[nH]3)SC2)cc1 | 12.1 µM
88 | Cc1cc(NC(=O)c2cncc(Br)c2)ccc1NC(=O)c1cc2ccccc2o1 | > 80 µM (inactive)
89 | CCOC(=O)c1c(NC(C)=O)sc2c(OCC(O)CNC(C)(C)C)c(Br)ccc12 (stereo not drawn) | > 80 µM (inactive)
90 | Cc1ccc2nc(Nc3nc(C)cc(-c4ccccc4)n3)[nH]c(=O)c2c1 | > 80 µM (inactive)
91 | O=C(N/N=C/c1ccc(Cl)cc1)c1sccc1OCc1ccc(F)cc1 | inactive
92 | Oc1ccc(-c2nc3ccc4ccccc4c3c3c2CCC3)cc1O | 18 µM
93 | O=c1[nH]c(O)c(/C=C2/C=CC(c3cc(Cl)ccc3Cl)=N2)c(=O)[nH]1 | 6.12 µM
